Results reported in the supplement of paper PMC10307832.

What was measured:
Assay in all cases: relative viability (nuclei count vs DMSO), 5 days (fraction); higher = more cells survive
[1] = compound: CC1=C(C(=O)N2C=CSC2=N1)CCN3CCC(=C(C4=CC=CC=C4)C5=CC=C(C=C5)F)CC3 + Nc1ncn([C@H]2C[C@H](O)[C@@H](CO)O2)c(=O)n1 [Decitabine] (partner 2 µM)
Procedure, shortened: (§1)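 Relative viability divides the nuclei count in treated wells by that in vehicle wells. Lung cancer cell lines were seeded in 1536-well plates, dosed by pin tool the next day, and fixed and stained after 5 days in one step with final 0.05% Triton X-100, 1% formaldehyde and 1 ug/ml Hoechst. Dosing was a single drug or a fixed anchor-drug dose plus five library-drug doses (not always all listed) in √10 steps, and values are medians of duplicate plates imaged at 4×.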

[2] = compound: CC1=C(C(=O)N2C=CSC2=N1)CCN3CCC(=C(C4=CC=CC=C4)C5=CC=C(C=C5)F)CC3 + CC1(C)CCC(c2ccc(Cl)cc2)=C(CN2CCN(c3ccc(C(=O)NS(=O)(=O)c4ccc(N[C@H](CCN5CCOCC5)CSc5ccccc5)c(S(=O)(=O)C(F)(F)F)c4)cc3)CC2)C1 [Navitoclax] (partner 0.5 µM)
Procedure, shortened: as §1

[3] = compound: CC1=C(C(=O)N2C=CSC2=N1)CCN3CCC(=C(C4=CC=CC=C4)C5=CC=C(C=C5)F)CC3 + N=C(N)NC(=N)NCCc1ccccc1 [Phenformin] (partner 250 µM)
Procedure, shortened: as §1

[4] = compound: CC1=C(C(=O)N2C=CSC2=N1)CCN3CCC(=C(C4=CC=CC=C4)C5=CC=C(C=C5)F)CC3 + C[C@@H](Oc1cc(-c2cnn(C3CCNCC3)c2)cnc1N)c1c(Cl)ccc(F)c1Cl [Crizotinib] (partner 1 µM)
Procedure, shortened: as §1

Cell Line	relative viability ([1]; first compound 0.08 µM)	relative viability ([1]; first compound 0.253 µM)	relative viability ([1]; first compound 0.8 µM)	relative viability ([1]; first compound 2.53 µM)	relative viability ([1]; first compound 8 µM)	relative viability ([2]; first compound 0.08 µM)	relative viability ([2]; first compound 0.253 µM)	relative viability ([2]; first compound 0.8 µM)	relative viability ([2]; first compound 2.53 µM)	relative viability ([2]; first compound 8 µM)	relative viability ([3]; first compound 0.08 µM)	relative viability ([3]; first compound 0.253 µM)	relative viability ([3]; first compound 0.8 µM)	relative viability ([3]; first compound 2.53 µM)	relative viability ([3]; first compound 8 µM)	relative viability ([4]; first compound 0.08 µM)	relative viability ([4]; first compound 0.253 µM)	relative viability ([4]; first compound 0.8 µM)	relative viability ([4]; first compound 2.53 µM)	relative viability ([4]; first compound 8 µM)
201T	0.884	0.89	0.845	0.9	0.804	1.19	1.16	1.21	1.22	1.23	0.504	0.463	0.433	0.477	0.386	1.02	1.03	1.01	1.05	1.08
A549	0.206	0.249	0.266	0.282	0.194	1.32	1.19	1.3	1.37	0.673	0.101	0.203	0.206	0.112	0.151	0.855	0.777	0.665	0.64	0.579
A-427	0.452	0.654	0.546	0.592	0.595	1.08	0.877	0.915	0.973	0.948	0.291	0.287	0.283	0.301	0.266	0.749	0.95	0.942	0.963	0.646
ABC-1	1.2		1.04	1.18	1.02						0.267	0.223	0.212	0.248	0.197	1.13	1.42	0.931	0.722	0.748
BEN	0.807	0.703	0.702	0.737	0.708	0.0374	0.0689	0.0632	0.23	0.108	0.255	0.281	0.247	0.316	0.21	0.725	0.818	0.963	0.963	0.69
CAL-12T						1.21	1.34	1.26	1.33	1.2	0.55	0.593	0.544	0.605	0.346	0.694	0.829	0.657	0.741	0.46
COR-L23	0.415	0.498	0.405	0.484	0.368	0.895	1.06	1.04	1.47	0.525	0.43	0.449	0.39	0.455	0.375	0.503	0.758	0.608	0.649	0.419
COR-L 105	0.59	0.629	0.71	0.719	0.509	0.765	0.708	0.724	0.808	0.634	0.484	0.467	0.402	0.499	0.387	0.676	0.809	0.641	0.836	0.786
Calu-6						0.873	0.944	0.935	0.969	0.441						0.713	0.864	0.631	0.782	0.576
ChaGo-K-1	0.495	0.548	0.52	0.629	0.46	1.19	0.888	0.663	1.69	1.11	0.561	0.462	0.53	0.539	0.431	1.17	1.32	1.29	0.706	1.03
EKVX	0.345	0.335	0.376	0.366	0.386	0.718	0.775	0.961	0.848	0.741	0.211	0.26	0.236	0.207	0.221	0.863	1.15	1.01	0.894	0.703
EMC-BAC-2	1.14		1.01	1.03	0.906	0.906	0.95	1.28	1.16	0.707	0.536	0.495	0.497	0.526	0.414	0.725	0.801	0.696	0.766	0.676
EPLC-272H	0.431	0.312	0.37	0.396	0.376		1.18	1.27	1.14	0.827	0.333	0.328	0.286	0.286	0.391		1.12	0.934	1.07	0.738
H3255	0.688	0.549	0.521	0.664	0.495	0.416	0.393	0.557	0.542	0.419	0.341	0.34	0.352	0.37	0.38	0.776	0.967	0.798	0.916	0.752
HARA	0.639	0.664	0.526	0.515	0.427	1.18	1.33	1.16	1.23	0.537	0.525	0.513	0.54	0.544	0.269	1	1.21	1.25	1.04	0.791
HCC-15	0.831	0.651	0.601	0.642	0.604	0.697	0.601	0.762	0.791	0.528	0.432	0.453	0.434	0.423	0.334	0.804	0.88	0.933	0.795	0.576
HCC-44	1.03	1.09	0.995	1.02	0.985	0.989	1.28	1.01	1.13	0.477	0.172	0.15	0.148	0.217	0.202	0.836	0.842	0.927	0.858	0.665
HCC-78	0.769	0.803	0.765	0.683	0.536	0.834	0.786	0.924	0.838	0.608	0.689	0.76	0.695	0.691	0.531	0.283	0.335	0.34	0.319	0.326
HCC-366	0.389	0.318	0.324	0.394	0.243		1.09	1.04	1.13	0.343	0.638	0.65	0.626	0.579	0.472		0.539	0.587	0.448	0.616
HCC-827	0.285	0.335	0.308	0.33	0.322	1.06	1.1	1.01	1.07	0.946	0.4	0.413	0.444	0.398	0.407	0.898	0.924	0.911	0.98	0.946

Cell Line	relative viability ([1]; first compound 0.08 µM)	relative viability ([1]; first compound 0.253 µM)	relative viability ([1]; first compound 0.8 µM)	relative viability ([1]; first compound 2.53 µM)	relative viability ([1]; first compound 8 µM)	relative viability ([2]; first compound 0.08 µM)	relative viability ([2]; first compound 0.253 µM)	relative viability ([2]; first compound 0.8 µM)	relative viability ([2]; first compound 2.53 µM)	relative viability ([2]; first compound 8 µM)	relative viability ([3]; first compound 0.08 µM)	relative viability ([3]; first compound 0.253 µM)	relative viability ([3]; first compound 0.8 µM)	relative viability ([3]; first compound 2.53 µM)	relative viability ([3]; first compound 8 µM)	relative viability ([4]; first compound 0.08 µM)	relative viability ([4]; first compound 0.253 µM)	relative viability ([4]; first compound 0.8 µM)	relative viability ([4]; first compound 2.53 µM)	relative viability ([4]; first compound 8 µM)
HOP-62	0.2	0.193	0.204	0.213	0.162	0.516	0.989	1.23	0.796	0.466	0.711	0.774	0.678	0.491	0.381	1.01	0.939	0.744	0.701	0.442
LC-2-ad	0.866	0.903	0.875	0.794	0.642	0.384	0.393	0.489	0.5	0.335	0.656	0.656	0.543	0.62	0.566	0.46	0.342	0.415	0.522	0.475
LCLC-97TM1	0.234	0.252	0.216	0.253	0.181	0.263	0.306	0.347	0.537	0.249	0.435	0.434	0.447	0.448	0.411	0.453	0.367	0.307	0.263	0.343
LCLC-103H	0.685	0.702	0.69	0.826	0.646						0.327	0.331	0.316	0.308	0.289	1.05	1.06	1.04	0.947	0.836
LK-2	0.316	0.226	0.341	0.339	0.248	0.741	0.962	1.11	1.05	0.703	0.417	0.386	0.301	0.297	0.321	0.291	0.234	0.202	0.293	0.29
LOU-NH91	0.796	0.832	0.834	0.926	0.792	0.625	0.663	0.758	0.698	0.604	0.72	0.676	0.689	0.673	0.597	0.701	0.747	0.715	0.772	0.726
NCI-H358	0.211	0.235	0.244	0.256	0.202						0.344	0.361	0.361	0.379	0.243	0.455	0.327	0.413	0.548	0.609
NCI-H522	0.729	0.629	0.793	0.592	0.686						0.769	0.627	0.677	0.607	0.566					
NCI-H650	0.342	0.363	0.339	0.319	0.274						0.404	0.521	0.421	0.497	0.404		0.791	0.377	0.718	0.608
NCI-H661	0.528	0.623	0.55	0.528	0.387						0.242	0.268	0.277	0.297	0.291	0.848	1.01	1.21	1	0.801
NCI-H1299						1.14	1.03	1.03	1.06	0.654						0.971	0.943	0.976	0.965	0.69
NCI-H1395	0.718	0.782	0.652	0.688	0.674	1.19	1.46	1.02	1.05	1.05	0.511	0.432	0.435	0.453	0.432					
NCI-H1563											0.654	0.7	0.695	0.633	0.648	0.775	0.842	0.793	0.817	0.87
NCI-H1648	0.528	0.587	0.513	0.456	0.453															
NCI-H1703						1.19	1.13	1.1	1.3	0.627						0.723	0.55	0.777	0.786	0.625
NCI-H1793	0.433	0.558	0.502	0.505	0.416	0.376	0.512	0.395	0.507	0.374	0.301	0.379	0.404	0.402	0.241					
NCI-H2228						0.693	0.914	0.811	0.838	0.623	0.261	0.301	0.376	0.348	0.256	0.6	0.486	0.376	0.539	0.322
NCI-H2342	0.547	0.809	0.697	0.834	0.645						0.557	0.605	0.52	0.597	0.523					
SW 900	0.477	0.437	0.407	0.45	0.496						0.474	0.68	0.521	0.568	0.516					
